Patent publication US20230085307A1, “PYRIDAZINONE COMPOUND AND HERBICIDE” (NISSAN CHEMICAL CORPORATION, priority 2019, published 2023)

What was measured:
late watergrass [1] = assay: Test Example 1: herbicidal activity, application before weed generation under submerged conditions (Table 16, symbol A); type: in vivo, late watergrass (Echinochloa oryzicola); conditions: amount of applied herbicide 320 g/ha
How it was run: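 Submerged Wagner pots (alluvial soil, 4 cm water) sown with weed seeds and planted with 2.5-leaf rice seedlings; emulsifiable concentrate diluted in water applied to water surface on sowing day. Held in greenhouse at 25-30 °C; injury scored 0-5 by herbicidal rate after three weeks.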

late watergrass [2] = assay: Test Example 2: herbicidal activity, application during weed generation under submerged conditions (Table 17, symbol A); type: in vivo, late watergrass (Echinochloa oryzicola); conditions: AAH 320 g/ha; application during weed generation, submerged conditions
How it was run: (§1)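 Wagner pot, alluvial soil, 4 cm flood; mixed sowing of all species; greenhouse 25° C.–30° C. Emulsifiable formulation, water-diluted to predetermined dose, applied to paddy water at 1–2 leaf stage. Effect rated at 3 wk using the earlier test's scoring criteria.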

Japanese bulrush = assay: Test Example 2: herbicidal activity, application during weed generation under submerged conditions (Table 17, symbol B); type: in vivo, Japanese bulrush (Schoenoplectus juncoides); conditions: AAH 320 g/ha; application during weed generation, submerged conditions
How it was run: as §1

oval-leafed pondweed = assay: Test Example 2: herbicidal activity, application during weed generation under submerged conditions (Table 17, symbol C); type: in vivo, oval-leafed pondweed (Monochoria vaginalis); conditions: AAH 320 g/ha; application during weed generation, submerged conditions
How it was run: as §1

wild oat = assay: Test Example 4: herbicidal effect by soil treatment (Table 19, symbol I); type: in vivo, wild oat (Avena fatua); conditions: amount of applied herbicide 320 g/ha
How it was run: (§2)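 Pre-emergence style soil spray: seeds under ~1.5 cm sterilized diluvial soil received a uniform coat of emulsion diluted to the predetermined herbicide amount. Greenhouse 25–30° C; readout at week three on previously defined criteria.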

Italian ryegrass [3] = assay: Test Example 4: herbicidal effect by soil treatment (Table 19, symbol K); type: in vivo, Italian ryegrass (Lolium multiflorum); conditions: amount of applied herbicide 320 g/ha
How it was run: as §2

lambsquarters = assay: Test Example 4: herbicidal effect by soil treatment (Table 19, symbol O); type: in vivo, lambsquarters (Chenopodium album); conditions: amount of applied herbicide 320 g/ha
How it was run: as §2

chickweed [4] = assay: Test Example 4: herbicidal effect by soil treatment (Table 19, symbol P); type: in vivo, common chickweed (Stellaria media); conditions: amount of applied herbicide 320 g/ha
How it was run: as §2

persian speedwell = assay: Test Example 4: herbicidal effect by soil treatment (Table 19, symbol R); type: in vivo, Persian speedwell (Veronica persica); conditions: amount of applied herbicide 320 g/ha
How it was run: as §2

southern crabgrass = assay: Test Example 5: herbicidal effect by foliage application, plastic box (Table 20, symbol F); type: in vivo, southern crabgrass (Digitaria ciliaris); conditions: 320 g/ha; for F: southern crabgrass, herbicidal effect grade / herbicidal effect on southern crabgrass (F): foliage application, three weeks after application
How it was run: (§3)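 Plants were sown into sterilized diluvial soil under about 1.5 cm cover and kept in a greenhouse at 25° C. to 30° C. Fourteen days on, foliage received an even spray of the diluted emulsion. Herbicidal or crop effect was judged three weeks afterwards.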

blackgrass [5] = assay: Test Example 5: herbicidal effect by foliage application, plastic box (Table 20, symbol J); type: in vivo, blackgrass (Alopecurus myosuroides); conditions: foliage application, 320 g/ha, three weeks after application
How it was run: as §3

Italian ryegrass [6] = assay: Test Example 5: herbicidal effect by foliage application, plastic box (Table 20, symbol K); type: in vivo, Italian ryegrass (Lolium multiflorum); conditions: 320 g/ha; for K: Italian ryegrass, herbicidal effect grade / herbicidal effect on Italian ryegrass (K): foliage application, three weeks after application
How it was run: as §3

velvetleaf = assay: Test Example 5: herbicidal effect by foliage application, plastic box (Table 20, symbol M); type: in vivo, velvetleaf (Abutilon theophrasti); conditions: 320 g/ha; for M: velvetleaf, herbicidal effect grade / herbicidal effect on velvetleaf (M): foliage application, three weeks after application
How it was run: as §3

redroot pigweed = assay: Test Example 5: herbicidal effect by foliage application, plastic box (Table 20, symbol N); type: in vivo, redroot pigweed (Amaranthus retroflexus); conditions: 320 g/ha; for N: redroot pigweed, herbicidal effect grade: foliage application, three weeks after application
How it was run: as §3

chickweed [7] = assay: Test Example 5: herbicidal effect by foliage application, plastic box (Table 20, symbol P); type: in vivo, common chickweed (Stellaria media); conditions: 320 g/ha; for P: chickweed, herbicidal effect grade: foliage application, three weeks after application
How it was run: as §3

blackgrass [8] = assay: Test Example 4: herbicidal effect by soil treatment (Table 19, symbol J); type: in vivo, blackgrass (Alopecurus myosuroides); conditions: amount of applied herbicide 320 g/ha
How it was run: as §2

[9] = foliage application after 14-day growth, evaluated three weeks after application

SMILES | Herbicidal effect, A: late watergrass (late watergrass [1]) | herbicidal effect rating, A: late watergrass (late watergrass [2]) | herbicidal effect rating, B: Japanese bulrush (Japanese bulrush) | herbicidal effect rating, C: oval-leafed pondweed (oval-leafed pondweed) | I: wild oat, herbicidal effect grade (wild oat) | K: Italian ryegrass, herbicidal effect grade (Italian ryegrass [3]) | O: lambsquarters, herbicidal effect grade (lambsquarters) | P: chickweed, herbicidal effect grade (chickweed [4]) | R: persian speedwell, herbicidal effect grade (persian speedwell) | F: southern crabgrass, herbicidal effect grade (southern crabgrass) | J: blackgrass, herbicidal effect grade (blackgrass [5]) | K: Italian ryegrass, herbicidal effect grade (Italian ryegrass [6]) | M: velvetleaf, herbicidal effect grade (velvetleaf) | N: redroot pigweed, herbicidal effect grade (redroot pigweed) | P: chickweed, herbicidal effect grade (chickweed [7]) | J: blackgrass, herbicidal effect grade (blackgrass [8]) | herbicidal effect on southern crabgrass (F) (southern crabgrass) | herbicidal effect on blackgrass (J) (blackgrass [5]) | herbicidal effect on Italian ryegrass (K) (Italian ryegrass [6]) | herbicidal effect on velvetleaf (M) (velvetleaf) | further results
CCCC(=O)Oc1c(C)nn(C)c(=O)c1-c1c(-c2ccc(F)cc2OCC)sc2cc(Cl)ccc12 [3-046] | 4 (Herbicidal rate of 70% or more and less than 90%) | 0 (Herbicidal rate of 5% or less (almost no effect)) | 2 (Herbicidal rate of 20% or more and less than 40%) | 1 (Herbicidal rate of 5% or more and less than 20%) | 0 (Herbicidal rate of 5% or less (almost no effect)) | 0 (Herbicidal rate of 5% or less (almost no effect)) | 3 (Herbicidal rate of 40% or more and less than 70%) | 4 (Herbicidal rate of 70% or more and less than 90%) | 4 (Herbicidal rate of 70% or more and less than 90%) | 5 (Herbicidal rate of 90% or more (almost completely withered)) | 4 (Herbicidal rate of 70% or more and less than 90%) | 0 (Herbicidal rate of 5% or less (almost no effect)) | 4 (Herbicidal rate of 70% or more and less than 90%) | 4 (Herbicidal rate of 70% or more and less than 90%) | 5 (Herbicidal rate of 90% or more (almost completely withered)) |  |  |  |  |  | 
COc1ccccc1-c1sc2cc(OCC3CC3(F)F)ccc2c1-c1c(O)c(C)nn(C)c1=O (stereo not shown) [3-131] | 5 (Herbicidal rate of 90% or more (almost completely withered)) | 5 (Herbicidal rate of 90% or more (almost completely withered)) | 3 (Herbicidal rate of 40% or more and less than 70%) | 5 (Herbicidal rate of 90% or more (almost completely withered)) | 3 (Herbicidal rate of 40% or more and less than 70%) | 5 (Herbicidal rate of 90% or more (almost completely withered)) | 5 (Herbicidal rate of 90% or more (almost completely withered)) | 4 (Herbicidal rate of 70% or more and less than 90%) |  | 5 (Herbicidal rate of 90% or more (almost completely withered)) | 5 (Herbicidal rate of 90% or more (almost completely withered)) | 5 (Herbicidal rate of 90% or more (almost completely withered)) | 4 (Herbicidal rate of 70% or more and less than 90%) | 5 (Herbicidal rate of 90% or more (almost completely withered)) | 5 (Herbicidal rate of 90% or more (almost completely withered)) | 4 (Herbicidal rate of 70% or more and less than 90%) |  |  |  |  | 
CCCC(=O)Oc1c(C)nn(C)c(=O)c1-c1c(-c2ccc(C#N)cc2)sc2c(F)cccc12 [4-053] | 5 (Herbicidal rate of 90% or more (almost completely withered)) | 4 (Herbicidal rate of 70% or more and less than 90%) | 2 (Herbicidal rate of 20% or more and less than 40%) |  |  |  |  |  |  |  |  |  |  |  |  |  |  |  |  |  | Herbicidal effect by soil treatment, I: wild oat (wild oat): 0 (Herbicidal rate of 5% or less (almost no effect)); Herbicidal effect by soil treatment, J: blackgrass (blackgrass [8]): 0 (Herbicidal rate of 5% or less (almost no effect)); Herbicidal effect by soil treatment, K: Italian ryegrass (Italian ryegrass [3]): 4 (Herbicidal rate of 70% or more and less than 90%); Herbicidal effect by soil treatment, O: lambsquarters (lambsquarters): 3 (Herbicidal rate of 40% or more and less than 70%); Herbicidal effect by soil treatment, P: chickweed (chickweed [4]): 4 (Herbicidal rate of 70% or more and less than 90%); Herbicidal effect by soil treatment, R: persian speedwell (persian speedwell): 5 (Herbicidal rate of 90% or more (almost completely withered)); herbicidal effect on F: southern crabgrass (evaluation grade 0-5) (southern crabgrass; [9]): 0 (Herbicidal rate of 5% or less (almost no effect)); herbicidal effect on K: Italian ryegrass (evaluation grade 0-5) (Italian ryegrass [6]; [9]): 4 (Herbicidal rate of 70% or more and less than 90%); herbicidal effect on M: velvetleaf (evaluation grade 0-5) (velvetleaf; [9]): 5 (Herbicidal rate of 90% or more (almost completely withered)); herbicidal effect on N: redroot pigweed (evaluation grade 0-5) (redroot pigweed; [9]): 5 (Herbicidal rate of 90% or more (almost completely withered)); herbicidal effect on P: chickweed (evaluation grade 0-5) (chickweed [7]; [9]): 5 (Herbicidal rate of 90% or more (almost completely withered))
CCCC(=O)Oc1c(C)nn(C)c(=O)c1-c1c(-c2ccc(F)cc2)sc2cc(C)c(C)cc12 [5-089] | 3 (Herbicidal rate of 40% or more and less than 70%) | 3 (Herbicidal rate of 40% or more and less than 70%) | 0 (Herbicidal rate of 5% or less (almost no effect)) | 0 (Herbicidal rate of 5% or less (almost no effect)) | 0 (Herbicidal rate of 5% or less (almost no effect)) | 0 (Herbicidal rate of 5% or less (almost no effect)) | 0 (Herbicidal rate of 5% or less (almost no effect)) | 0 (Herbicidal rate of 5% or less (almost no effect)) | 0 (Herbicidal rate of 5% or less (almost no effect)) |  |  |  |  |  |  | 0 (Herbicidal rate of 5% or less (almost no effect)) | 0 (Herbicidal rate of 5% or less (almost no effect)) | 0 (Herbicidal rate of 5% or less (almost no effect)) | 0 (Herbicidal rate of 5% or less (almost no effect)) | 0 (Herbicidal rate of 5% or less (almost no effect)) | 
CCOc1ccccc1-c1sc2cc(C)c(C)cc2c1-c1c(O)c(C)nn(C)c1=O [5-094] | 4 (Herbicidal rate of 70% or more and less than 90%) | 2 (Herbicidal rate of 20% or more and less than 40%) | 3 (Herbicidal rate of 40% or more and less than 70%) | 3 (Herbicidal rate of 40% or more and less than 70%) | 0 (Herbicidal rate of 5% or less (almost no effect)) | 3 (Herbicidal rate of 40% or more and less than 70%) | 3 (Herbicidal rate of 40% or more and less than 70%) | 1 (Herbicidal rate of 5% or more and less than 20%) | 3 (Herbicidal rate of 40% or more and less than 70%) |  |  |  |  |  |  | 1 (Herbicidal rate of 5% or more and less than 20%) | 5 (Herbicidal rate of 90% or more (almost completely withered)) | 4 (Herbicidal rate of 70% or more and less than 90%) | 5 (Herbicidal rate of 90% or more (almost completely withered)) | 4 (Herbicidal rate of 70% or more and less than 90%) | 
COc1cc(F)ccc1-c1sc2cc(C)c(C)cc2c1-c1c(O)c(C)nn(C)c1=O [5-101] | 3 (Herbicidal rate of 40% or more and less than 70%) | 0 (Herbicidal rate of 5% or less (almost no effect)) | 2 (Herbicidal rate of 20% or more and less than 40%) | 2 (Herbicidal rate of 20% or more and less than 40%) | 0 (Herbicidal rate of 5% or less (almost no effect)) | 4 (Herbicidal rate of 70% or more and less than 90%) | 2 (Herbicidal rate of 20% or more and less than 40%) | 0 (Herbicidal rate of 5% or less (almost no effect)) |  |  |  |  |  |  |  | 0 (Herbicidal rate of 5% or less (almost no effect)) | 4 (Herbicidal rate of 70% or more and less than 90%) | 4 (Herbicidal rate of 70% or more and less than 90%) | 4 (Herbicidal rate of 70% or more and less than 90%) | 4 (Herbicidal rate of 70% or more and less than 90%) | 
